Experimental data reported in PubChem BioAssay AID1845209 (Molecular Pharmacology Branch, DTP, NCI, 2023).

Test system: NCI-H211 tumor spheroids, viability percent test/control
Experiment: Anticancer human tumor NCI-H211 cell line growth inhibition;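 note: spheroids exposed to agents for seven days before readout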
Conditions: spheroids with HUVEC and MSC; for IC50: curve of first compound; for viability, T/C: stronger effect = lower value
Outline: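 Single agents and combinations were tested on spheroids built from tumor cells plus HUVEC and hMSC, at half-log dilutions starting at or near clinical Cmax, else 10 microM; final DMSO 0.25% (v/v).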

[1] = second compound 0.003 µM, first compound 0.0316 µM
[2] = second compound 0.003 µM, first compound 0.1 µM
[3] = second compound 0.003 µM, first compound 0.316 µM
[4] = second compound 0.003 µM, first compound 1 µM
[5] = second compound 0.003 µM, first compound 3.16 µM
[6] = second compound 0.003 µM, first compound 10 µM
[7] = second compound 0.00949 µM, first compound 0.0316 µM
[8] = second compound 0.00949 µM, first compound 0.1 µM
[9] = second compound 0.00949 µM, first compound 0.316 µM
[10] = second compound 0.00949 µM, first compound 1 µM
[11] = second compound 0.00949 µM, first compound 3.16 µM
[12] = second compound 0.00949 µM, first compound 10 µM
[13] = second compound 0.03 µM, first compound 0.0316 µM
[14] = second compound 0.03 µM, first compound 0.1 µM
[15] = second compound 0.03 µM, first compound 0.316 µM
[16] = second compound 0.03 µM, first compound 1 µM
[17] = second compound 0.03 µM, first compound 3.16 µM
[18] = second compound 0.03 µM, first compound 10 µM
[19] = second compound 0.0949 µM, first compound 0.0316 µM
[20] = second compound 0.0949 µM, first compound 0.1 µM
[21] = second compound 0.0949 µM, first compound 0.316 µM
[22] = second compound 0.0949 µM, first compound 1 µM
[23] = second compound 0.0949 µM, first compound 3.16 µM
[24] = second compound 0.0949 µM, first compound 10 µM
[25] = second compound 0.3 µM, first compound 0.0316 µM
[26] = second compound 0.3 µM, first compound 0.1 µM
[27] = second compound 0.3 µM, first compound 0.316 µM
[28] = second compound 0.3 µM, first compound 1 µM
[29] = second compound 0.3 µM, first compound 3.16 µM
[30] = second compound 0.3 µM, first compound 10 µM

Compound | IC50 (second compound 0.003 µM) | IC50 (second compound 0.00949 µM) | IC50 (second compound 0.03 µM) | IC50 (second compound 0.0949 µM) | IC50 (second compound 0.3 µM) | viability, T/C [1] | viability, T/C [2] | viability, T/C [3] | viability, T/C [4] | viability, T/C [5] | viability, T/C [6] | viability, T/C [7] | viability, T/C [8] | viability, T/C [9] | viability, T/C [10] | viability, T/C [11] | viability, T/C [12] | viability, T/C [13] | viability, T/C [14] | viability, T/C [15] | also measured
CC(C)n1c(=O)n(C)c2cnc3cc(F)c(-c4ccc(OCCCN5CCCCC5)nc4)cc3c21 + CC[C@@]1(O)C(=O)OCc2c1cc1n(c2=O)Cc2cc3c(CN(C)C)c(O)ccc3nc2-1 | < 31.6 nM | < 31.6 nM | < 31.6 nM | < 31.6 nM | < 31.6 nM | 19.9% | 22% | 20% | 18.8% | 10.9% | 2.91% | 0.98% | 0.97% | 1.23% | 1.31% | 1.09% | 0.52% | 1.27% | 0.81% | 0.82% | viability, T/C [16]: 0.85%; viability, T/C [17]: 0.81%; viability, T/C [18]: 0.5%; viability, T/C [19]: 0.98%; viability, T/C [20]: 1.01%; viability, T/C [21]: 0.97%; viability, T/C [22]: 0.94%; viability, T/C [23]: 1%; viability, T/C [24]: 0.57%; viability, T/C [25]: 1.06%; viability, T/C [26]: 0.95%; viability, T/C [27]: 0.85%; viability, T/C [28]: 1.2%; viability, T/C [29]: 1.02%; viability, T/C [30]: 0.73%
COc1ccc([C@@H](O)c2cc(-c3ncnc4cc(N5CCOCC5)ccc34)c(F)cc2Cl)nn1 + CC[C@@]1(O)C(=O)OCc2c1cc1n(c2=O)Cc2cc3c(CN(C)C)c(O)ccc3nc2-1 | 3600 nM | < 31.6 nM | < 31.6 nM | < 31.6 nM | < 31.6 nM | 112% | 109% | 109% | 80.8% | 57.8% | 5.72% | 18.5% | 19% | 34.5% | 10.9% | 4.32% | 1.55% | 0.99% | 1.23% | 0.9% | viability, T/C [16]: 0.66%; viability, T/C [17]: 0.4%; viability, T/C [18]: 0.33%; viability, T/C [19]: 0.86%; viability, T/C [20]: 0.83%; viability, T/C [21]: 0.77%; viability, T/C [22]: 1.43%; viability, T/C [23]: 0.37%; viability, T/C [24]: 0.32%; viability, T/C [25]: 0.92%; viability, T/C [26]: 1.06%; viability, T/C [27]: 0.96%; viability, T/C [28]: 0.94%; viability, T/C [29]: 1.01%; viability, T/C [30]: 0.26%
